Experimental data taken from patent publication US20210221843A1, “EPHA2 AGONISTS AND USES THEREOF” (THE REGENTS OF THE UNIVERSITY OF CALIFORNIA, priority 2018, published 2021).
Entries after “also recorded” stand apart in the source; their conditions may differ. Starred links: 1 amine or outer side, 2 acyl side, 3 side chain; linkers in the order of their positions; H or OH if unused. Non-standard residues stand in square brackets, D forms with d. Residues, ends and D or L forms follow the SMILES beside them. *: point of attachment. Dap(4-FSB) = (S)-2-amino-3-(4-(fluorosulfonyl)benzamido)propanoic acid, O=C(NC[C@H](N[*:1])C(=O)[*:2])c1ccc(S(=O)(=O)F)cc1; 7‑MethoxyBenzofuranoic = N-terminus modified by (7-methoxybenzofuran-2-yl)-methanone, COc1cccc2cc(C(=O)*)oc12; Phenoxyacetyl(3-Cl,4-F) = O=C(COc1ccc(F)c(Cl)c1)*; Dap = NC[C@H](N)C(=O)O

How the values were obtained:
EphA2 [1] = target: T1, EphA2 (Homo sapiens, UniProt P29317); assay: Covalent gel shift with EphA2; format: biochemical; details: compounds incubated 10:1 for 2 hours at room temperature
T1 sequence (P29317 24-976): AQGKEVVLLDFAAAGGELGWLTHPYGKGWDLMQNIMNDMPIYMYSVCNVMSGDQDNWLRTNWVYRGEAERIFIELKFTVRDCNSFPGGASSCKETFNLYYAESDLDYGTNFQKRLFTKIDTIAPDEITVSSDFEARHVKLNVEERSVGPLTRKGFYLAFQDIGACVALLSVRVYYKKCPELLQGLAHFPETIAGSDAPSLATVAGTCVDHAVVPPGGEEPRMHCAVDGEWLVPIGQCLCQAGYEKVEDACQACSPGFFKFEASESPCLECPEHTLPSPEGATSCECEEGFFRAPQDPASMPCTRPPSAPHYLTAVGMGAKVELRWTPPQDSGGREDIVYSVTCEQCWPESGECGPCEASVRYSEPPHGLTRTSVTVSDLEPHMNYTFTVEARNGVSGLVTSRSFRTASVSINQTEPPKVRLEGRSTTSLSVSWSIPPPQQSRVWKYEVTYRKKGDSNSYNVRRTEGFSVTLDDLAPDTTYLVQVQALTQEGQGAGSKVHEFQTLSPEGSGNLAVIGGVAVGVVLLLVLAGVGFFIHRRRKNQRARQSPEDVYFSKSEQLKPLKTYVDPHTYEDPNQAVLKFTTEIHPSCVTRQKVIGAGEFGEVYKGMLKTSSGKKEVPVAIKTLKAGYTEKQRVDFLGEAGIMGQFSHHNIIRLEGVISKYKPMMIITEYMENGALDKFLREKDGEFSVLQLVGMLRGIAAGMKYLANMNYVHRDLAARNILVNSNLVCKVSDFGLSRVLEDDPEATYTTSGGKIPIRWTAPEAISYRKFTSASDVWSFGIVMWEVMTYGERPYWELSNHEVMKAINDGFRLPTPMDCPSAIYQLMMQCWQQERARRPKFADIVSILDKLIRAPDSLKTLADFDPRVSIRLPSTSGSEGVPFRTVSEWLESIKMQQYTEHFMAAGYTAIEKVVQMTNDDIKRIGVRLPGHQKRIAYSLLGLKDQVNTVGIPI
Method: Covalent adduct formation of EphA2 with 147A5 and 147A6, respectively, were confirmed by covalent gel shift. Compounds were incubated 10:1 for 2 hours at room temperature.

EphA2-LBD = EphA2-LBD (Homo sapiens, UniProt P29317); assay: DELFIA displacement assay (displacement of biotinylated 123B9 from EphA2-LBD)
EphA2-LBD, sequence (P29317 28-206 limits assumed): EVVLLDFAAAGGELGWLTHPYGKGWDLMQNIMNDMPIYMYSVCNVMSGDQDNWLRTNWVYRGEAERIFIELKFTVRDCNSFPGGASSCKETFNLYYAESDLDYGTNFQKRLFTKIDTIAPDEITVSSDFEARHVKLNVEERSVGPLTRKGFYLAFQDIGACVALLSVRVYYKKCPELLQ

EphA2 [2] = target: T1, EphA2; assay: Western blot of total EphA2 and pEphA2 S897 in BxPC3 cells; format: cell-based; parameters: endogenous in cells; host or cells: BxPC3; PANC-1; details: 3 hours treatment
BxPC3 cells [3] = assay: Time-lapse scratch wound cell invasion assay (Matrigel); format: cell-based; details: scratch wound through Matrigel, 2.5 μM
Method: Cell invasion assay: Matrigel (Corning) was diluted in serum-free RPMI-1640 media (1:100), 50 µL of the mixture was added to ImageLock plate and incubated at 37° C. for 2 h. Next, excess media were aspirated and cells in complete media were plated and left overnight in humidified cell culture incubator. The following day, cell culture plate was aspirated, scratched with the WoundMaker, and washed twice with PBS. Subsequently, the plate was coated with a mixture of Matrigel and cold serum-free RPMI-1640 (1:1) and left in the incubator to solidify for 30 min. Finally, 100 µL of 1.5× compound-media mixture was added to the plate at various concentrations. The healing of the scratches was imaged and calculated similar to the migration assay.

EphA2 [4] = target: T1, EphA2; assay: Immunofluorescence of EphA2 cellular localization in BxPC3 cells; format: cell-based; parameters: endogenous in cells; host or cells: BxPC3; PANC-1; details: 30 min treatment, 1 μM 135H12
Method: FIG. 4A-D. Dimeric EphA2 agonists degrade EphA2 receptors in cancer cells. […] BxPC3 cell line was treated with the indicated doses for 3 hours, then cells were lysed and Western blot studies were performed. […] BxPC3 or PANC-1 cells were treated and lysed similar to the previous Western blot. […] EphrinA1-Fc is a clustered natural ligand and used as a positive control. […] Moreover, the receptor band disappeared after 1 hour of treatment. […] Cells were immunostained with EphA2 antibody (light) and nuclei were counterstained with DAPI (dark). […] Images were acquired using confocal Inverted Zeiss 880.
In chamber slides, cells were plated and allowed to adhere overnight in humidified cell culture incubators. The following day, cells were treated with the indicated ligands for 30 min. Subsequently, cells were washed with PBS and fixed with 4% Formaldehyde (Polysciences, Inc.), then blocked and permeabilized with 5% FBS and 0.3% Triton™ X-100 for 1 h. Next, wells were washed and stained with anti-EphA2 antibody, followed by three washes and further incubation with Alexafluor goat anti-mouse 488 secondary antibody (ThermoFisher). Cells were counterstained with DAPI and mounted with Prolong Diamond Antifade (ThermoFisher). Images were acquired with confocal microscope Zeiss 880 Airyscan and processed using Adobe Photoshop CC.

BxPC3 cells [5] = assay: Time-lapse scratch wound cell-migration assay; format: cell-based; details: 2.5 μM
Method: Cell-migration assay: Cells were cultured in 96-well ImageLock plates (Sartorius). Next day, wells were scratched using the WoundMaker (Sartorius). Subsequently, cells were washed twice with PBS and treated with the indicated compounds in RPMI-1640 complete media. Subsequently, cells were imaged every 6 h using IncuCyte S3 (Sartorius) and relative wound areas were analyzed using the algorithm of the imager cell migration software module.

EphA2 [6] = target: T1, EphA2; assay: Western blot of total EphA2 and pEphA2 S897 in PANC-1 cells; format: cell-based; parameters: endogenous in cells; host or cells: PANC-1
EphA2 [7] = target: T1, EphA2; assay: EphA2 receptor phosphorylation assay in HEK293 cells (immunoprecipitation, anti-phosphotyrosine blot); format: cell-based; parameters: endogenous in cells; PANC-1; details: various doses

Molecule: (7-MethoxyBenzofuranoic)LAYPDAVP-Dap(3-FSB)-RP-CONH2 ({7‑MethoxyBenzofuranoic}-LAYPDAVP[Dap(3-FSB)]RP-NH2) [147A6]
- covalent adduct formation with EphA2 (EphA2 [1]): confirmed

Molecule: (7-MethoxyBenzofuranoic)LAYPDAVP-Dap(4-FSB)-RP-CONH2 ({7‑MethoxyBenzofuranoic}-LAYPDAVP[Dap(4-FSB)]RP-NH2; SMILES COc1cccc2cc(C(=O)N[C@@H](CC(C)C)C(=O)N[C@@H](C)C(=O)N[C@@H](Cc3ccc(O)cc3)C(=O)N3CCC[C@H]3C(=O)N[C@@H](CC(=O)O)C(=O)N[C@@H](C)C(=O)N[C@H](C(=O)N3CCC[C@H]3C(=O)N[C@@H](CNC(=O)c3ccc(S(=O)(=O)F)cc3)C(=O)N[C@@H](CCCNC(=N)N)C(=O)N3CCC[C@H]3C(N)=O)C(C)C)oc12) [147A5]
- covalent adduct formation with EphA2 (EphA2 [1]): confirmed

Molecule: CC(C)[C@H](NC(=O)[C@H](CC(=O)O)NC(=O)[C@H](CC(=O)O)NC(=O)[C@@H]1CCCN1C(=O)[C@H](Cc1ccc(O)cc1)NC(=O)[C@H](C)NC(=O)[C@H](CN)NC(=O)COc1ccc(F)c(Cl)c1)C(=O)N1CCC[C@H]1C(=O)N[C@@H](Cc1ccccc1)C(=O)N[C@@H](CCCNC(=N)N)C(=O)N1CCC[C@H]1C(N)=O [135F11] ({Phenoxyacetyl(3-Cl,4-F)}-[Dap]AYPDDVPFRP-NH2)
- IC50 (EphA2-LBD): > 200 µM

Molecule: CC(C)[C@H](NC(=O)[C@H](CO)NC(=O)[C@H](CC(=O)O)NC(=O)[C@@H]1CCCN1C(=O)[C@H](Cc1ccc(O)cc1)NC(=O)[C@H](C)NC(=O)[C@H](CO)NC(=O)COc1ccc(F)c(Cl)c1)C(=O)N1C[C@H](O)C[C@H]1C(=O)N[C@@H](Cc1ccc(Cl)cc1)C(=O)N[C@@H](CCCNC(=N)N)C(=O)N1CCC[C@H]1C(=O)NCC(=O)NCCCC[C@H](NC(=O)CNC(=O)[C@@H]1CCCN1C(=O)[C@H](CCCNC(=N)N)NC(=O)[C@H](Cc1ccc(Cl)cc1)NC(=O)[C@@H]1C[C@@H](O)CN1C(=O)[C@@H](NC(=O)[C@H](CO)NC(=O)[C@H](CC(=O)O)NC(=O)[C@@H]1CCCN1C(=O)[C@H](Cc1ccc(O)cc1)NC(=O)[C@H](C)NC(=O)[C@H](CO)NC(=O)COc1ccc(F)c(Cl)c1)C(C)C)C(N)=O [135G4, [(4F,3ClPhOCH2CO)SAYPDSV(HYP)(4ClPhe)RPG]2-K-CONH2]
- degradation of total EphA2 and dephosphorylation of pEphA2 S897 (EphA2 [2]): degraded total EphA2 receptor and phosphorylated pEphA2 S897 at nanomolar concentrations; also recorded: remarkably active in inducing receptor degradation and dephosphorylation of Ser897-EphA2 at sub-micromolar concentrations

Molecule: COc1ccc(C[C@H](NC(=O)[C@H](C)NC(=O)[C@H](CC(C)C)NC(=O)c2oc3c(OC)c(OC)ccc3c2C)C(=O)N2CCC[C@H]2C(=O)N[C@@H](CC(=O)O)C(=O)N[C@@H](C)C(=O)N[C@H](C(=O)N2C[C@H](O)C[C@H]2C(=O)N[C@@H](Cc2ccc(Cl)cc2)C(=O)N[C@@H](CCCNC(=N)N)C(=O)N2CCC[C@H]2C(N)=O)C(C)C)cc1 [135H11, XLA(4MeTyr)PDAV(Hyp)(4ClPhe)RP-CONH2]
- inhibition of cell invasion (BxPC3 cells [3]): inhibited cell invasion; also recorded: equally effective in suppressing cell invasion at low micromolar concentration
- EphA2 cellular localization (EphA2 [4]): located at the cell membrane; also recorded: fluorescence localized at the cell membrane
- inhibition of cell migration (BxPC3 cells [5]): inhibit cell migration
- degradation of total EphA2 and dephosphorylation of pEphA2 S897 (EphA2 [2]): more effective than the monomer 123B9; also recorded: orders of magnitude more effective than 123B9 in causing EphA2 degradation and suppressing oncogenic pSer897-EphA2
- degradation of total EphA2 and dephosphorylation of pEphA2 S897 (EphA2 [6]): more effective than the monomer 123B9; also recorded: orders of magnitude more effective than 123B9 in causing EphA2 degradation and suppressing oncogenic pSer897-EphA2

Molecule: CC(C)[C@H](NC(=O)[C@H](CO)NC(=O)[C@H](CC(=O)O)NC(=O)[C@@H]1CCCN1C(=O)[C@H](Cc1ccc(O)cc1)NC(=O)[C@H](C)NC(=O)[C@H](CO)NC(=O)COc1ccc(F)c(Cl)c1)C(=O)N1C[C@H](O)C[C@H]1C(=O)N[C@@H](Cc1ccc(Cl)cc1)C(=O)N[C@@H](CCCNC(=N)N)C(=O)N1CCC[C@H]1C(N)=O [135G3, (4F,3ClPhOCH2CO)SAYPDSV(Hyp)(4ClPhe)RP-CONH2]
- induction of EphA2 receptor phosphorylation (EphA2 [7]): remarkably increased cellular activity in inducing tyrosine receptor phosphorylation compared to YSA

B1: ephrinA1-Fc: clustered natural ligand and used as a positive control (protein)
chain: DRHIVFWNSSNPKFREEDYTVHVQLNDYLDIICPHYEDDSVADAAMERYTLYMVEHQEYVACQPQSKDQVRWNCNRPSAKHGPEKLSEKFQRFTPFILGKEFKEGHSYYYISKPIYHQESQCLKLKVTVNGKITHNPQAHVNPQEKRLQADDPEVQVLHSIGYS
modifications: left off: a dimerising Fc or GST
notes: clustered natural ligand and used as a positive control
- EphA2 cellular localization (EphA2 [4]): punctuated fluorescence was observed in the cytoplasm
